From ChEMBL document CHEMBL5154649, “Design, synthesis, and characterization of novel aminoalcohol quinolines with strong in vitro antimalarial activity” (Eur J Med Chem, 2022) come the findings set out here.

A word on the IC50: it is the concentration needed to halve the response being measured. By Papp A→B is commonly meant how fast a substance crosses the layer from the apical side.

Data set [1] in a line: Genotoxicity in CHO-K1 cells at 0.001 to 1 mM incubated for 3 hrs in presence of S9 mix by in vitro micronucleus test. The data set is classed as toxicity, cell-based, Cricetulus griseus. Conditions: chinese hamster, cho-k1, 3 h, 1000 µM, dose 0.001-1 mM.
The nature of data set [2]: Apparent permeability across apical to basolateral side in human Caco-2/TC7 cells assessed as drug recovery at 20 uM incubated for 2 hrs by LC-MS/MS analysis. It counts as ADME, cell-based, Caco2/TC7. Particulars: read-out: Drug recovery.
Data set [3] relates to Plasmodium falciparum. The experiment in a line: Selectivity index, ratio of IC50 for antiplasmodial activity against CQ-susceptible Plasmodium falciparum 3D7 to IC50 for antiplasmodial activity CQ-resistant Plasmodium falciparum W2 by HRP2-ELISA. The data set is classed as functional.
The target of data set [4] is T1, Cytochrome P450 3A4 (Homo sapiens, UniProt P08684). The experiment in a line: Inhibition of CYP3A4 in human liver microsomes assessed as reduction in 1'-hydroxy midazolam formation using midazolam as substrate preincubated for 20 mins in absence of NADPH followed by incubation with substrate for 10 mins by LC-MS/MS analysis. It counts as ADME, Microsome. (Microsomes from liver hold many membrane-bound enzymes, among them those of drug oxidation.)

Data set [5] is described as follows: Selectivity index, ratio of IC50 for cytotoxicity against chinese hamster CHO cells to IC50 for antiplasmodial activity against Plasmodium falciparum 3D7 infected in human erythrocytes by HRP2-ELISA. It counts as toxicity, cell-based. Conditions: read-out: Ratio IC50.
The test system of data set [6] is Plasmodium falciparum. The experiment in a line: Antiplasmodial activity against CQ-susceptible Plasmodium falciparum 3D7 assessed as inhibition of parasite growth measured after 48 hrs by SYBR Green 1 dye based fluorescence assay. The data set is classed as functional, organism-based. Particulars: 3D7, 48 h.
The test system of data set [7] is Plasmodium falciparum. Put plainly: Antiplasmodial activity CQ-resistant Plasmodium falciparum W2 infected in human erythrocytes assessed as inhibition of parasite growth measured after 72 hrs by HRP2-ELISA. The data set is classed as functional, organism-based. Conditions: W2, Erythrocyte. (In general: An ELISA detects its analyte on a solid surface through an enzyme-linked reagent.)

In data set [8] the target is T1, Cytochrome P450 3A4. Put plainly: Inhibition of CYP3A4 in human liver microsomes assessed as reduction in 6-beta-hydroxy-testosterone formation using testosterone as substrate preincubated for 20 mins in absence of NADPH followed by incubation with substrate for 10 mins by LC-MS/MS analysis. The data set is classed as ADME, Microsome.
Data set [9] in a line: Drug metabolism in mouse liver microsomes assessed as (S)-2-(((S)-2-(2,8-Bis(trifluoromethyl)quinolin-4-yl)-2-hydroxyethyl)amino)-3-phenylpropan-1-ol metabolite formation measured after 5 mins by LC-MS analysis. It counts as ADME, Microsome.
Data set [10] is described as follows: Metabolic stability in mouse liver microsomes assessed as intrinsic clearance at 0.5 uM incubated for 30 mins by LC-MS/MS analysis. The data set is classed as ADME, Microsome. Particulars: read-out: CLH.
The nature of data set [11]: Drug metabolism in human liver microsomes assessed as oxidative metabolite formation measured after 5 mins by LC-MS analysis. The data set is classed as ADME, Microsome.
The target in data set [12] is Voltage-gated inwardly rectifying potassium channel KCNH2 (Homo sapiens, UniProt Q12809). The experiment in a line: Inhibition of hERG channel expressed in CHO cells at holding potential of -80 mV by whole cell patch clamp method. It counts as toxicity, cell-based.
Data set [13] in a line: Metabolic stability in human liver microsomes assessed as intrinsic clearance at 0.5 uM incubated for 30 mins by LC-MS/MS analysis. The data set is classed as ADME, Microsome. Conditions: read-out: CLH.
The target in data set [14] is T1, Cytochrome P450 3A4. The experiment in a line: Inhibition of CYP3A4 in human liver microsomes assessed as reduction in 1'-hydroxy midazolam formation using midazolam as substrate preincubated for 20 mins in presence of NADPH followed by incubation with substrate for 10 mins by LC-MS/MS analysis. It counts as ADME, Microsome.
Data set [15] can be described thus: Metabolic stability in rat liver microsomes assessed as intrinsic clearance at 0.5 uM incubated for 30 mins by LC-MS/MS analysis. It counts as ADME, Microsome. Conditions: read-out: CLH.
Data set [16] has as its system Plasmodium falciparum. Put plainly: Antiplasmodial activity against CQ-resistant Plasmodium falciparum W2 assessed as inhibition of parasite growth measured after 48 hrs by SYBR Green 1 dye based fluorescence assay. It counts as functional, organism-based. Conditions: W2, 48 h.
A short description of data set [17]: Drug metabolism in rat liver microsomes assessed as oxidative metabolite formation measured after 5 mins by LC-MS analysis. The data set is classed as ADME, Microsome.
The test system of data set [18] is Plasmodium falciparum. The experiment in a line: Selectivity index, ratio of IC50 for antiplasmodial activity against CQ-susceptible Plasmodium falciparum 3D7 to IC50 for antiplasmodial activity against CQ-resistant Plasmodium falciparum W2 by SYBR Green 1 dye based fluorescence assay. The data set is classed as functional.
Data set [19] in a line: Apparent permeability across apical to basolateral side in human Caco-2/TC7 cells at 20 uM incubated for 2 hrs by LC-MS/MS analysis. It counts as ADME, cell-based, Caco2/TC7.
The test system of data set [20] is Plasmodium falciparum. The experiment in a line: Antiplasmodial activity against CQ-susceptible Plasmodium falciparum 3D7 infected in human erythrocytes assessed as inhibition of parasite growth measured after 72 hrs by HRP2-ELISA. The data set is classed as functional, organism-based. Particulars: 3D7, Erythrocyte.
A short description of data set [21]: Cytotoxicity against human HFF cells assessed as reduction in cell viability incubated for 72 hrs by MTT assay. It counts as toxicity, cell-based. (In general: Tetrazolium dyes change colour on reduction, which living cells bring about.)
A short description of data set [22]: Drug metabolism in mouse liver microsomes assessed as (1S)-2-amino-1-[2,8-bis(trifluoromethyl)quinolin-4-yl]ethan-1-ol metabolite formation measured after 5 mins by LC-MS analysis. It counts as ADME, Microsome.
The nature of data set [23]: Selectivity index, ratio of IC50 for human HFF cells to IC50 for antiplasmodial activity against Plasmodium falciparum 3D7 infected in human erythrocytes by HRP2-ELISA. The data set is classed as toxicity, cell-based. Conditions: read-out: Ratio IC50.
Data set [24] in a line: Cytotoxicity against Chinese hamster CHO cells assessed as reduction in cell viability incubated for 24 hrs by MTT assay. It counts as toxicity, cell-based, Cricetulus griseus.
The target of data set [25] is T1, Cytochrome P450 3A4. Put plainly: Inhibition of CYP3A4 in human liver microsomes assessed as reduction in 6-beta-hydroxy-testosterone formation using testosterone as substrate preincubated for 20 mins in presence of NADPH followed by incubation with substrate for 10 mins by LC-MS/MS analysis. The data set is classed as ADME, Microsome.
A short description of data set [26]: Cytotoxicity against human HepG2 cells assessed as reduction in cell viability incubated for 72 hrs by MTT assay. The data set is classed as toxicity, cell-based.
The nature of data set [27]: Genotoxicity in CHO-K1 cells at 0.001 to 1 mM incubated for 24 hrs without metabolic activation by in vitro micronucleus test. The data set is classed as toxicity, cell-based, Cricetulus griseus. Particulars: chinese hamster, cho-k1, 24 h, 1000 µM, dose 0.001-1 mM.
A short description of data set [28]: Selectivity index, ratio of IC50 for cytotoxicity against human HepG2 cells to IC50 for antiplasmodial activity against Plasmodium falciparum 3D7 infected in human erythrocytes by HRP2-ELISA. Particulars: read-out: Ratio IC50. It counts as toxicity, cell-based.
A short description of data set [29]: Selectivity index, ratio of IC50 for cytotoxicity against human THP-1 cells to IC50 for antiplasmodial activity against Plasmodium falciparum 3D7 infected in human erythrocytes by HRP2-ELISA. Particulars: read-out: Ratio IC50. It counts as toxicity, cell-based.
Data set [30] is described as follows: Cytotoxicity against human THP-1 cells assessed as reduction in cell viability incubated for 72 hrs by MTT assay. It counts as toxicity, cell-based.
The nature of data set [31]: Selectivity index, ratio of IC50 for cytotoxicity against human THP-1 cells to IC50 for antiplasmodial activity against CQ-susceptible Plasmodium falciparum 3D7 by SYBR Green 1 dye based fluorescence assay. It counts as toxicity, cell-based. Conditions: THP-1 cells versus CQ-susceptible Plasmodium falciparum 3D7, read-out: Ratio IC50.
Data set [32] can be described thus: Selectivity index, ratio of IC50 for cytotoxicity against chinese hamster CHO cells to IC50 for antiplasmodial activity against CQ-susceptible Plasmodium falciparum 3D7 by SYBR Green 1 dye based fluorescence assay. It counts as toxicity, cell-based. Conditions: CHO cells versus CQ-susceptible Plasmodium falciparum 3D7, read-out: Ratio IC50.
The nature of data set [33]: Selectivity index, ratio of IC50 for cytotoxicity against human HepG2 cells to IC50 for antiplasmodial activity against CQ-susceptible Plasmodium falciparum 3D7 by SYBR Green 1 dye based fluorescence assay. The data set is classed as toxicity, cell-based. Particulars: HepG2 cells versus CQ-susceptible Plasmodium falciparum 3D7, read-out: Ratio IC50.
Data set [34] in a line: Selectivity index, ratio of IC50 for cytotoxicity against human HFF cells to IC50 for antiplasmodial activity against CQ-susceptible Plasmodium falciparum 3D7 by SYBR Green 1 dye based fluorescence assay. It counts as toxicity, cell-based. Particulars: HFF cells versus CQ-susceptible Plasmodium falciparum 3D7, read-out: Ratio IC50.

T1 sequence (P08684 whole entry): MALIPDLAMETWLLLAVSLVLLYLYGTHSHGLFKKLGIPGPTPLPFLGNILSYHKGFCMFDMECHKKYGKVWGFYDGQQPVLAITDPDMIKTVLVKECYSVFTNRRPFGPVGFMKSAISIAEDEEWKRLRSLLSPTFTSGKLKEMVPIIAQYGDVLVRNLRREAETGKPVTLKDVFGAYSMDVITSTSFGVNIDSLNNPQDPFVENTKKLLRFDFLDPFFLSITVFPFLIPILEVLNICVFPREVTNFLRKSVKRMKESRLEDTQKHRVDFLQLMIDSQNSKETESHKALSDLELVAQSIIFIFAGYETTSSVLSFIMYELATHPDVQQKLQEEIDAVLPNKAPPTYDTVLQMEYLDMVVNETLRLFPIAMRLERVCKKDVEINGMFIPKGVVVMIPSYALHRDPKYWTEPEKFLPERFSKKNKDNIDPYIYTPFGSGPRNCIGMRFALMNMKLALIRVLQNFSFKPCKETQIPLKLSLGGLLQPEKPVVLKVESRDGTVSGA
Chain of Voltage-gated inwardly rectifying potassium channel KCNH2 (Q12809 whole entry): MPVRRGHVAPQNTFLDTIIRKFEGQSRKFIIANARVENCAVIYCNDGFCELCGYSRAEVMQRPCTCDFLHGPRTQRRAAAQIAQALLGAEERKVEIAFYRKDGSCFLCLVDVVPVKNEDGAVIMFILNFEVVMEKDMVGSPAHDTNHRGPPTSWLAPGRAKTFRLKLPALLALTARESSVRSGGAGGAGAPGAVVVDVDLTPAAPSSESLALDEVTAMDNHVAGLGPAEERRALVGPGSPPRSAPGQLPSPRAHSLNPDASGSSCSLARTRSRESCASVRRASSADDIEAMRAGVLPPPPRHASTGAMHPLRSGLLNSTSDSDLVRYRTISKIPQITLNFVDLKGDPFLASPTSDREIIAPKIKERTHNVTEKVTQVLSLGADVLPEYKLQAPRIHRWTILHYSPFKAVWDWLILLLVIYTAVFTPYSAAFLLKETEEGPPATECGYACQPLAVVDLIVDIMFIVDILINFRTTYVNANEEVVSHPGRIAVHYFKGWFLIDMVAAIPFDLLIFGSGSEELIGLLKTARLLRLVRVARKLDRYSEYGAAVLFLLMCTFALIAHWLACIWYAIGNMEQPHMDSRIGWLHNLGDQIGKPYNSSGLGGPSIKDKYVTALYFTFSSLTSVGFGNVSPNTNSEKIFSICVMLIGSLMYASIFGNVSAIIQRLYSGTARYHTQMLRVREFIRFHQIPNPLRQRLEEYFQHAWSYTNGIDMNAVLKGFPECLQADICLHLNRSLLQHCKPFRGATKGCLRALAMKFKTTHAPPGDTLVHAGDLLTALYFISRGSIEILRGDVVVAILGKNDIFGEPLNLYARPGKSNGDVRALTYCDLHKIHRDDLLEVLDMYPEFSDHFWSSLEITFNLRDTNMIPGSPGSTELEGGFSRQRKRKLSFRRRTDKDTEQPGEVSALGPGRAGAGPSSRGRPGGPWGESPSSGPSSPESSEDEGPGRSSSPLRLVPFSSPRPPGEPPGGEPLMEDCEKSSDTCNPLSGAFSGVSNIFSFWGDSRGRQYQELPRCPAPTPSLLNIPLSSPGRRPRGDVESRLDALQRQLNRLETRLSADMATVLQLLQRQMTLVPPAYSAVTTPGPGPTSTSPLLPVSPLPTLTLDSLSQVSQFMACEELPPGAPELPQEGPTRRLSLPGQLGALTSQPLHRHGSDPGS

Regarding `COC[C@H](Cc1ccccc1)NC[C@@H](O)c1cc(C(F)(F)F)nc2c(C(F)(F)F)cccc12`, the Activity result in data set [1] and in [27] was “Non-Toxic” in each case. Moreover, in data set [2], the recovery at 2 h, 20 µM was 81%. Moreover, the Ratio IC50 in [3] was 1.35; in [18] it was 1.1. For the same compound, the IC50 in data set [4] came out at 2.8 µM; in data set [6], 0.0151 µM; in data set [7], 0.011 µM; in [8], 2.9 µM; in [12], 17.3 µM; in data set [14], 5.9 µM. The IC50 is 0.0132 µM in data set [16], 0.0149 µM in [20] and 2.3 µM in data set [25]. The selectivity ratio came to 3170 in data set [5], 2970 in data set [23], 778 in [28] and 1090 in data set [29]. Further, the Drug metabolism entry in data set [9], in data set [11], in [17] and in data set [22] was “Metabolite_Detected” each time. Further, the microsomal CLint at 0.5 µM in data set [10], in data set [13] and in data set [15] was above 1000 µL/min/mg each time. For the same compound, the Papp A→B at 2 h, 20 µM in data set [19] was found to be 61 nm/s. Besides, the IC50 at 72 h in data set [21] came out at 44.2 µM; in data set [26], 11.6 µM; in data set [30] it was 16.2 µM. Moreover, in [24], the IC50 at 24 h was found to be 47.3 µM.
On to `O[C@@H](CNCCN1CCN(C(c2ccccc2)c2ccccc2)CC1)c1cc(C(F)(F)F)nc2c(C(F)(F)F)cccc12`, for which the selectivity ratio in [31] was determined as 168; in data set [32], 226; in data set [33], 73; in data set [34], 308. The 50% inhibitory concentration (IC50) in data set [6] is 0.0451 µM; in [16], 0.0765 µM. For the same compound, in [18], the Ratio IC50 worked out at 0.6. Further, the IC50 at 72 h was 13.9 µM in [21], 3.3 µM in data set [26] and 7.6 µM in data set [30]. The IC50 at 24 h in data set [24] is 10.2 µM.
